Measurements: US20230085307A1, “PYRIDAZINONE COMPOUND AND HERBICIDE” (NISSAN CHEMICAL CORPORATION, priority 2019, published 2023)

Tests used:
green foxtail [1] = assay: Test Example 5: herbicidal effect by foliage application, plastic box (Table 20, symbol G); assay type: in vivo, green foxtail (Setaria viridis); details: 320 g/ha, foliage application after 14-day growth, evaluated three weeks after application
Outline: (§1)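 Plants sown in sterilized diluvial soil and grown 14 days in a greenhouse at 25° C to 30° C, then sprayed on the foliage with the compound's emulsion diluted in water to a predetermined herbicide amount. Injury to weeds and crops scored three weeks after application on a visual rating scale.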

windgrass [2] = assay: Test Example 4: herbicidal effect by soil treatment (Table 19, symbol L); assay type: in vivo, windgrass (Apera spica-venti); details: amount of applied herbicide 320 g/ha
Outline: (§2)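 Seeds were sown in sterilized diluvial soil and covered with about 1.5 cm of soil. An emulsion formulation diluted with water to a predetermined herbicide amount was sprayed evenly onto the soil surface. Plants grew in a greenhouse at 25° C. to 30° C., and the effect was scored three weeks after application using criteria from an earlier test.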

redroot pigweed [3] = assay: Test Example 5: herbicidal effect by foliage application, plastic box (Table 20, symbol N); assay type: in vivo, redroot pigweed (Amaranthus retroflexus); details: 320 g/ha, foliage application after 14-day growth, evaluated three weeks after application
Outline: as §1

chickweed [4] = assay: Test Example 5: herbicidal effect by foliage application, plastic box (Table 20, symbol P); assay type: in vivo, common chickweed (Stellaria media); details: 320 g/ha, foliage application after 14-day growth, evaluated three weeks after application
Outline: as §1

wild oat [5] = assay: Test Example 4: herbicidal effect by soil treatment (Table 19, symbol I); assay type: in vivo, wild oat (Avena fatua); details: amount of applied herbicide 320 g/ha
Outline: as §2

redroot pigweed [6] = assay: Test Example 4: herbicidal effect by soil treatment (Table 19, symbol N); assay type: in vivo, redroot pigweed (Amaranthus retroflexus); details: amount of applied herbicide 320 g/ha
Outline: as §2

blackgrass [7] = assay: Test Example 5: herbicidal effect by foliage application, plastic box (Table 20, symbol J); assay type: in vivo, blackgrass (Alopecurus myosuroides); details: 320 g/ha, foliage application after 14-day growth, evaluated three weeks after application
Outline: as §1

southern crabgrass [8] = assay: Test Example 4: herbicidal effect by soil treatment (Table 19, symbol F); assay type: in vivo, southern crabgrass (Digitaria ciliaris); details: amount of applied herbicide 320 g/ha
Outline: as §2

rice flat sedge = assay: Test Example 3: herbicidal effect by foliage application, Wagner pot (Table 18, symbol E); assay type: in vivo, rice flat sedge (Cyperus iria); details: 320 g/ha
Outline: (§3)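 Plants were sown in alluvial soil held under 0.1–0.5 cm standing water and grown 14 days in a greenhouse at 25–30 °C. An emulsifiable formulation, water-diluted to the set dose, was then sprayed onto the foliage, and effects were scored three weeks later using previously defined criteria.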

persian speedwell [9] = assay: Test Example 4: herbicidal effect by soil treatment (Table 19, symbol R); assay type: in vivo, Persian speedwell (Veronica persica); details: amount of applied herbicide 320 g/ha
Outline: as §2

Chinese sprangletop = assay: Test Example 3: herbicidal effect by foliage application, Wagner pot (Table 18, symbol D); assay type: in vivo, chinese sprangletop (Leptochloa chinensis); details: 320 g/ha
Outline: as §3

persian speedwell [10] = assay: Test Example 5: herbicidal effect by foliage application, plastic box (Table 20, symbol R); assay type: in vivo, Persian speedwell (Veronica persica); details: 320 g/ha, foliage application after 14-day growth, evaluated three weeks after application
Outline: as §1

lambsquarters [11] = assay: Test Example 5: herbicidal effect by foliage application, plastic box (Table 20, symbol O); assay type: in vivo, lambsquarters (Chenopodium album); details: 320 g/ha, foliage application after 14-day growth, evaluated three weeks after application
Outline: as §1

wild oat [12] = assay: Test Example 5: herbicidal effect by foliage application, plastic box (Table 20, symbol I); assay type: in vivo, wild oat (Avena fatua); details: 320 g/ha, foliage application after 14-day growth, evaluated three weeks after application
Outline: as §1

Italian ryegrass [13] = assay: Test Example 5: herbicidal effect by foliage application, plastic box (Table 20, symbol K); assay type: in vivo, Italian ryegrass (Lolium multiflorum); details: 320 g/ha, foliage application after 14-day growth, evaluated three weeks after application
Outline: as §1

velvetleaf [14] = assay: Test Example 5: herbicidal effect by foliage application, plastic box (Table 20, symbol M); assay type: in vivo, velvetleaf (Abutilon theophrasti); details: 320 g/ha, foliage application after 14-day growth, evaluated three weeks after application
Outline: as §1

blackgrass [15] = assay: Test Example 4: herbicidal effect by soil treatment (Table 19, symbol J); assay type: in vivo, blackgrass (Alopecurus myosuroides); details: amount of applied herbicide 320 g/ha
Outline: as §2

barnyard grass [16] = assay: Test Example 5: herbicidal effect by foliage application, plastic box (Table 20, symbol H); assay type: in vivo, barnyard grass (Echinochloa crus-galli); details: 320 g/ha, foliage application after 14-day growth, evaluated three weeks after application
Outline: as §1

Italian ryegrass [17] = assay: Test Example 4: herbicidal effect by soil treatment (Table 19, symbol K); assay type: in vivo, Italian ryegrass (Lolium multiflorum); details: amount of applied herbicide 320 g/ha
Outline: as §2

lambsquarters [18] = assay: Test Example 4: herbicidal effect by soil treatment (Table 19, symbol O); assay type: in vivo, lambsquarters (Chenopodium album); details: amount of applied herbicide 320 g/ha
Outline: as §2

barnyard grass [19] = assay: Test Example 3: herbicidal effect by foliage application, Wagner pot (Table 18, symbol H); assay type: in vivo, barnyard grass (Echinochloa crus-galli); details: 320 g/ha
Outline: as §3

barnyard grass [20] = assay: Test Example 4: herbicidal effect by soil treatment (Table 19, symbol H); assay type: in vivo, barnyard grass (Echinochloa crus-galli); details: amount of applied herbicide 320 g/ha
Outline: as §2

velvetleaf [21] = assay: Test Example 4: herbicidal effect by soil treatment (Table 19, symbol M); assay type: in vivo, velvetleaf (Abutilon theophrasti); details: amount of applied herbicide 320 g/ha
Outline: as §2

southern crabgrass [22] = assay: Test Example 5: herbicidal effect by foliage application, plastic box (Table 20, symbol F); assay type: in vivo, southern crabgrass (Digitaria ciliaris); details: 320 g/ha, foliage application after 14-day growth, evaluated three weeks after application
Outline: as §1

green foxtail [23] = assay: Test Example 4: herbicidal effect by soil treatment (Table 19, symbol G); assay type: in vivo, green foxtail (Setaria viridis); details: amount of applied herbicide 320 g/ha
Outline: as §2

windgrass [24] = assay: Test Example 5: herbicidal effect by foliage application, plastic box (Table 20, symbol L); assay type: in vivo, windgrass (Apera spica-venti); details: 320 g/ha, foliage application after 14-day growth, evaluated three weeks after application
Outline: as §1

chickweed [25] = assay: Test Example 4: herbicidal effect by soil treatment (Table 19, symbol P); assay type: in vivo, common chickweed (Stellaria media); details: amount of applied herbicide 320 g/ha
Outline: as §2

Compound | herbicidal effect on G: green foxtail (evaluation grade 0-5) (green foxtail [1]) | Herbicidal effect by soil treatment, L: windgrass (windgrass [2]) | herbicidal effect on N: redroot pigweed (evaluation grade 0-5) (redroot pigweed [3]) | herbicidal effect on P: chickweed (evaluation grade 0-5) (chickweed [4]) | Herbicidal effect by soil treatment, I: wild oat (wild oat [5]) | Herbicidal effect by soil treatment, N: redroot pigweed (redroot pigweed [6]) | herbicidal effect on J: blackgrass (evaluation grade 0-5) (blackgrass [7]) | Herbicidal effect by soil treatment, F: southern crabgrass (southern crabgrass [8]) | herbicidal effect on rice flat sedge (E) (rice flat sedge) | Herbicidal effect by soil treatment, R: persian speedwell (persian speedwell [9]) | herbicidal effect on Chinese sprangletop (D) (Chinese sprangletop) | herbicidal effect on R: persian speedwell (evaluation grade 0-5) (persian speedwell [10]) | herbicidal effect on O: lambsquarters (evaluation grade 0-5) (lambsquarters [11]) | herbicidal effect on I: wild oat (evaluation grade 0-5) (wild oat [12]) | herbicidal effect on K: Italian ryegrass (evaluation grade 0-5) (Italian ryegrass [13]) | herbicidal effect on M: velvetleaf (evaluation grade 0-5) (velvetleaf [14]) | Herbicidal effect by soil treatment, J: blackgrass (blackgrass [15]) | herbicidal effect on H: barnyard grass (evaluation grade 0-5) (barnyard grass [16]) | Herbicidal effect by soil treatment, K: Italian ryegrass (Italian ryegrass [17]) | Herbicidal effect by soil treatment, O: lambsquarters (lambsquarters [18]) | other results
CCCOc1ccc(-c2sc3c(Cl)cccc3c2-c2c(O)c(C)nn(C)c2=O)cc1 [4-027] | 0 (Herbicidal rate of 5% or less (almost no effect)) | 0 (Herbicidal rate of 5% or less (almost no effect)) | 5 (Herbicidal rate of 90% or more (almost completely withered)) | 5 (Herbicidal rate of 90% or more (almost completely withered)) | 0 (Herbicidal rate of 5% or less (almost no effect)) | 4 (Herbicidal rate of 70% or more and less than 90%) | 3 (Herbicidal rate of 40% or more and less than 70%) | 0 (Herbicidal rate of 5% or less (almost no effect)) | 0 (Herbicidal rate of 5% or less (almost no effect)) | 1 (Herbicidal rate of 5% or more and less than 20%) | 0 (Herbicidal rate of 5% or less (almost no effect)) | 5 (Herbicidal rate of 90% or more (almost completely withered)) | 5 (Herbicidal rate of 90% or more (almost completely withered)) | 0 (Herbicidal rate of 5% or less (almost no effect)) | 1 (Herbicidal rate of 5% or more and less than 20%) | 4 (Herbicidal rate of 70% or more and less than 90%) | 0 (Herbicidal rate of 5% or less (almost no effect)) | 4 (Herbicidal rate of 70% or more and less than 90%) | 0 (Herbicidal rate of 5% or less (almost no effect)) | 2 (Herbicidal rate of 20% or more and less than 40%) | herbicidal effect on barnyard grass (H) (barnyard grass [19]): 5 (Herbicidal rate of 90% or more (almost completely withered)); Herbicidal effect by soil treatment, H: barnyard grass (barnyard grass [20]): 0 (Herbicidal rate of 5% or less (almost no effect)); Herbicidal effect by soil treatment, M: velvetleaf (velvetleaf [21]): 0 (Herbicidal rate of 5% or less (almost no effect)); herbicidal effect on F: southern crabgrass (evaluation grade 0-5) (southern crabgrass [22]): 0 (Herbicidal rate of 5% or less (almost no effect)); Herbicidal effect by soil treatment, G: green foxtail (green foxtail [23]): 0 (Herbicidal rate of 5% or less (almost no effect)); herbicidal effect on L: windgrass (evaluation grade 0-5) (windgrass [24]): 3 (Herbicidal rate of 40% or more and less than 70%); Herbicidal effect by soil treatment, P: chickweed (chickweed [25]): 5 (Herbicidal rate of 90% or more (almost completely withered))
COc1cc(F)ccc1-c1sc2c(Cl)cccc2c1-c1c(O)c(C)nn(C)c1=O [4-033] | 0 (Herbicidal rate of 5% or less (almost no effect)) | 0 (Herbicidal rate of 5% or less (almost no effect)) | 2 (Herbicidal rate of 20% or more and less than 40%) | 5 (Herbicidal rate of 90% or more (almost completely withered)) | 0 (Herbicidal rate of 5% or less (almost no effect)) | 2 (Herbicidal rate of 20% or more and less than 40%) | 0 (Herbicidal rate of 5% or less (almost no effect)) | 0 (Herbicidal rate of 5% or less (almost no effect)) | 3 (Herbicidal rate of 40% or more and less than 70%) | 4 (Herbicidal rate of 70% or more and less than 90%) | 2 (Herbicidal rate of 20% or more and less than 40%) | 5 (Herbicidal rate of 90% or more (almost completely withered)) | 0 (Herbicidal rate of 5% or less (almost no effect)) | 0 (Herbicidal rate of 5% or less (almost no effect)) | 0 (Herbicidal rate of 5% or less (almost no effect)) | 3 (Herbicidal rate of 40% or more and less than 70%) | 0 (Herbicidal rate of 5% or less (almost no effect)) | 3 (Herbicidal rate of 40% or more and less than 70%) | 0 (Herbicidal rate of 5% or less (almost no effect)) | 0 (Herbicidal rate of 5% or less (almost no effect)) | herbicidal effect on barnyard grass (H) (barnyard grass [19]): 4 (Herbicidal rate of 70% or more and less than 90%); Herbicidal effect by soil treatment, H: barnyard grass (barnyard grass [20]): 0 (Herbicidal rate of 5% or less (almost no effect)); Herbicidal effect by soil treatment, M: velvetleaf (velvetleaf [21]): 0 (Herbicidal rate of 5% or less (almost no effect)); herbicidal effect on F: southern crabgrass (evaluation grade 0-5) (southern crabgrass [22]): 0 (Herbicidal rate of 5% or less (almost no effect)); Herbicidal effect by soil treatment, G: green foxtail (green foxtail [23]): 0 (Herbicidal rate of 5% or less (almost no effect)); herbicidal effect on L: windgrass (evaluation grade 0-5) (windgrass [24]): 1 (Herbicidal rate of 5% or more and less than 20%); Herbicidal effect by soil treatment, P: chickweed (chickweed [25]): 4 (Herbicidal rate of 70% or more and less than 90%)
